19 molecules from article PMC6152116, “Sulfonamide-Linked Ciprofloxacin, Sulfadiazine and Amantadine Derivatives as a Novel Class of Inhibitors of Jack Bean Urease; Synthesis, Kinetic Mechanism and Molecular Docking” (Molecules : A Journal of Synthetic Chemistry and Natural …, 2017) can be followed below.

The IC50 is the midpoint of a concentration-inhibition curve. What is called melting point is the temperature of the solid-liquid transition. A word on the Ki: it is the dissociation constant of the complex between target and ligand, obtained from inhibition or displacement. Read a high Ki as lower affinity.

In data set [1] the target is T1, jack bean urease (Canavalia ensiformis, UniProt P07374). Kind of data set: biochemical.
Procedure: The jack bean urease action was determined by measuring the ammonia produced by the indophenol method described by Weatherburn. The reaction mixtures, containing 50 µL of buffer (100 mM urea, 10 mM dibasic potassium phosphate, 1 mM EDTA and 10 mM LiCl, pH 8.2), 20 µL of sample and 20 µL of the jack bean urease (5 U/mL) were added in a 96-well plate and the plate was incubated at 37 °C for 30 min. After incubation, 50 μL of phenol reagent (1%, w/v phenol and 0.005%, w/v sodium nitroprusside) and 50 μL of alkali reagents (0.5%, w/v NaOH and 0.1% NaOCl) were added in each well, and again the plate was incubated at 37 °C for 10 min. After the second incubation, the absorbance was checked at 625 nm, using a microplate reader (OPTIMax, Tunable, Sunnyvale, CA, USA). All reactions were performed in triplicate. The urease inhibition activity was calculated according to the following formula:Inhibition (%) = [(B − S)/B] × 100 where B and S are the optical densities of sample and blank. Thiourea was used as reference.
Data set [2] can be described thus: Free radical scavenging assay (DPPH). To be noted: in comparison to the reference drug vitamin C. As for the experimental part:
Radical scavenging activity was determined by adjusting the already reported 2,2-diphenyl-1-picrylhydrazyl (DPPH) assay method. The assay arrangement comprised 100 µL of DPPH (150 µM), 20 µL of increasing concentrations of test compounds and the volume was adjusted to 200 µL in each well with DMSO. At a room temperature, the reaction mixture was incubated for 30 min. Ascorbic acid (Vitamin C) was utilized as a model inhibitor. The assay estimations were done by using a micro plate reader (OPTIMax, Tunable, Sunnyvale, CA, USA) at 517 nm. The response rates were analyzed and the percent inhibition caused by the presence of the tested inhibitor was calculated. Each concentration was analyzed in three independent experiments run thrice.
Background: Loss of DPPH colour is used to gauge radical scavenging.

In data set [3] the target is T1, jack bean urease. The data set can be described thus: Kinetic mechanism study of urease inhibition (Lineweaver–Burk plots). It counts as biochemical. As to conditions: for Inhibition Type: urea as substrate; for Ki′ (ESI dissociation constant): from intercept versus inhibitor concentration. As for the experimental part: Kinetic analysis was carried out to determine the mode of inhibition. […] Kinetics were determined by varying the dose of urea in the presence of different doses of compound 3e (0.025, 0.05, 0.01 and 0.02 µM), compound 6a (0.00, 0.0011, 0.0022, and 0.0044 µM), compound 9e (0.00, 0.015, 0.03 and 0.06 µM) and compound 12d (0.0130, 0.026, 0.052, 0.104 and 0.208 µM). In detail the urea doses were varied between 100, 50, 25, 12.5, 6.25 and 3.125 mM mM for urease kinetics studies and the rest of the procedure was same for all kinetic studies as described in the urease inhibition assay protocol. Maximal initial velocities were determined from the initial linear portion of the absorbances up to 10 min after the addition of enzyme at per minute’s intervals. The inhibition type of the enzyme was assayed by Lineweaver–Burk plots of the inverse of velocities (1/V) versus the inverse of substrate concentration 1/[S] mM^−1. The EI dissociation constant Ki was determined by the secondary plot of 1/V versus inhibitor concentration and the ESI dissociation constant Ki′ was calculated from the intercept versus inhibitor concentrations. Urease activity was determined by measuring ammonia production using the indophenol method as reported previously. The results (change in absorbance per min) were recorded at 625 nm using a microplate reader (Optimax Tunable, Sunnyvale, CA, USA).

Where [4] appears, read: 100 mM urea, pH 8.2, 37 °C, read-out: Urease Activity IC50 ± SEM.
The mark [5] stands for this setting: Urease Activity IC50 ± SEM, 100 mM urea, pH 8.2, 37 °C.

Where “and” joins values, the source holds several entries; their conditions need not be identical. Equal entries are not always repeated. Entries after “also recorded” stand apart in the source; their conditions may differ. Where two headings read alike, the source gives them in different places.

T1 sequence (P07374 whole entry, looked up): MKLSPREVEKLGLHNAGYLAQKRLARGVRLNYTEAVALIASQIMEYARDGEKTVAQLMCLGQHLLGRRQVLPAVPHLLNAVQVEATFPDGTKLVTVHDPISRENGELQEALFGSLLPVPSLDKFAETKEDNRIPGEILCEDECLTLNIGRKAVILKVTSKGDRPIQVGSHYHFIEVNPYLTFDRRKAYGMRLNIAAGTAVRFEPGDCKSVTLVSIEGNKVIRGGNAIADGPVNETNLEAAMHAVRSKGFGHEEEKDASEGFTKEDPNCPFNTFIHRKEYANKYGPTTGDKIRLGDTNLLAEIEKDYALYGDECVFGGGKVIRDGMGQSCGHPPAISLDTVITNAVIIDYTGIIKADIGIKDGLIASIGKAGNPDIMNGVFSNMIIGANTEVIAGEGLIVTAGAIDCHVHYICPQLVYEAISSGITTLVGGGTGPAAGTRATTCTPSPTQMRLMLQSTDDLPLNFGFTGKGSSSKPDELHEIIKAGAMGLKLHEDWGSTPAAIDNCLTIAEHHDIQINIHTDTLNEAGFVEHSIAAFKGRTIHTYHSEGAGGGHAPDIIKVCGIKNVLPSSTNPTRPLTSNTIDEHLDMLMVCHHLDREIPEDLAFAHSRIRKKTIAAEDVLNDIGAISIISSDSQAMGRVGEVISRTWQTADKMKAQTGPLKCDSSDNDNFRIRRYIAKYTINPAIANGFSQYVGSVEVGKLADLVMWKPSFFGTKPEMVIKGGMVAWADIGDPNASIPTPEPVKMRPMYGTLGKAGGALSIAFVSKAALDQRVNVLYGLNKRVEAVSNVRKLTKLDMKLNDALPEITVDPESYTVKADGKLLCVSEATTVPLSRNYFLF

Turning to `NC(N)=S` [Thiourea, reference compound], the IC50 on jack bean urease [1] (setting [4]) turned out to be 17810 ± 96 nM.

Molecule `Cc1ccc(S(=O)(=O)NNC(N)=S)cc1[N+](=O)[O-]` [Compound 12f, 2-((4-Methyl-3-nitrophenyl)sulfonyl)hydrazine-1-carbothioamide] came in with a melting point of 160 to 163 °C. The molecule also had an IC50 at jack bean urease [1] (setting [5]) of 67 ± 2.9 nM. Besides, the radical scavenging potency result in data set [2] is given as “excellent radical scavenging potency”.

For `Cc1ccc(S(=O)(=O)NC23CC4CC(CC(C4)C2)C3)cc1` [Compound 9a, N-(Adamantan-1-yl)-4-methylbenzenesulfonamide], on jack bean urease [1] (setting [5]), the midpoint of inhibition, the IC50, lay at 289 ± 15 nM.

Molecule `O=S(=O)(Nc1ccc(S(=O)(=O)Nc2ncccn2)cc1)c1ccc(-c2ccccc2)cc1` [Compound 6c, N-(4-(N-(pyrimidin-2-yl)sulfamoyl)phenyl)-[1,1′-biphenyl]-4-sulfonamide] registered a melting point of 168 to 170 °C. Moreover, the IC50 against jack bean urease [1] (setting [5]) is 141 ± 7 nM.

Take `O=S(=O)(NC12CC3CC(CC(C3)C1)C2)c1ccc(-c2ccccc2)cc1` [Compound 9c, N-(Adamantan-1-yl)-[1,1′-biphenyl]-4-sulfonamide]: the IC50 at jack bean urease [1] (setting [5]) stood at 17.8 nM.

For the molecule `O=S(=O)(NC12CC3CC(CC(C3)C1)C2)c1cccc(Cl)c1Cl` [Compound 9d, N-(Adamantan-1-yl)-2,3-dichlorobenzenesulfonamide], the melting point is 221 to 230 °C. This molecule also had an IC50 at jack bean urease [1] (setting [5]) of 53.3 ± 1 nM.

Turning to `O=[N+]([O-])c1ccccc1S(=O)(=O)Nc1ccc(S(=O)(=O)Nc2ncccn2)cc1` [Compound 6b, 2-Nitro-N-(4-(N-(pyrimidin-2-yl)sulfamoyl)phenyl)benzenesulfonamide], the IC50 on jack bean urease [1] (read-out: Urease Activity IC50 ± SEM, 100 mM urea, pH 8.2, 37 °C) worked out at 233 ± 11 nM.

On to `Cc1cc(C)cc(S(=O)(=O)NNC(N)=S)c1` [Compound 12e, 2-((3,5-Dimethylphenyl)sulfonyl)hydrazine-1-carbothioamide], for which the melting point was in the range of 160 to 162 °C. Also, on jack bean urease [1] (setting [5]), half-maximal inhibition (IC50) required 96 ± 4 nM. Besides, in data set [2], the radical scavenging potency result is reported as “excellent radical scavenging potency”.

Molecule `Cc1ccc(S(=O)(=O)NNC(N)=S)cc1` [Compound 12a, 2-Tosylhydrazine-1-carbothioamide] displayed an IC50 against jack bean urease [1] (setting [5]) of 225 ± 6 nM. Besides, the radical scavenging potency entry in data set [2] is given as “excellent radical scavenging potency”.

For the molecule `NC(=S)NNS(=O)(=O)c1ccc([N+](=O)[O-])cc1` [Compound 12b, 2-((4-Nitrophenyl)sulfonyl)hydrazine-1-carbothioamide], the melting point was 160 to 162 °C. This molecule also returned an IC50 against jack bean urease [1] (setting [5]) of 141 ± 4 nM. The radical scavenging potency result in data set [2] is on record as “excellent radical scavenging potency”.

Turning to “2-((2,3-Dichlorophenyl)sulfonyl)hydrazine-1-carbothioamide [Compound 6d]”, on jack bean urease [1] (setting [4]), the IC50 turned out to be 95 ± 4 nM.

For `Cc1cc(C)cc(S(=O)(=O)NC23CC4CC(CC(C4)C2)C3)c1` [Compound 9e, N-(Adamantan-1-yl)-3,5-dimethylbenzenesulfonamide], the melting point was 162 to 164 °C. In addition, on jack bean urease [3], the Ki was determined as 22.5 nM and the “Inhibition Type” value is listed as “non-competitive mode of inhibition; also recorded: non-competitive mechanism; also recorded: Noncompetitive”. For the same molecule, the Vmax at jack bean urease [3] (inhibitor dose 0.013 µM) is given as 0.00299 ΔA/Min. Further, on jack bean urease [3] (inhibitor dose 0.015 µM), the Vmax is reported as 0.00127 ΔA/Min. Also, the Vmax at jack bean urease [3] (inhibitor dose 0.03 µM) is 0.00108 ΔA/Min. Also, the Vmax at jack bean urease [3] (inhibitor dose 0.06 µM) is reported as 0.00085 ΔA/Min. This molecule also came in with a 50% inhibitory concentration (IC50) at jack bean urease [1] (setting [5]) of 25 nM.

In turn, `O=[N+]([O-])c1ccc(S(=O)(=O)NC23CC4CC(CC(C4)C2)C3)cc1` [Compound 9b, N-(Adamantan-1-yl)-4-nitrobenzenesulfonamide] registered an IC50 at jack bean urease [1] (setting [5]) of 27.6 ± 1 nM.

`Cc1ccc(S(=O)(=O)Nc2ccc(S(=O)(=O)Nc3ncccn3)cc2)cc1` [Compound 6a, 4-Methyl-N-(4-(N-(pyrimidin-2-yl)sulfamoyl)phenyl)benzenesulfonamide] registered a melting point of 223 to 225 °C. In addition, at jack bean urease [3], affinity was put at a Ki of 1.1 nM, the “Ki′ (ESI dissociation constant)” value is 1.6 nM and the “Inhibition Type” value is listed as “mixed type of mode inhibition”. Further, the Vmax at jack bean urease [3] (inhibitor dose 0.0011 µM) was 0.00769 ΔA/Min. Moreover, on jack bean urease [3] (inhibitor dose 0.0022 µM), the Vmax was 0.00493 ΔA/Min. Also, the Vmax on jack bean urease [3] (inhibitor dose 0.0044 µM) is given as 0.00351 ΔA/Min. The half-inhibitory concentration (IC50) at jack bean urease [1] (setting [5]) was 2.23 nM and 2.2 nM and 2 nM.

Molecule `NC(=S)NNS(=O)(=O)c1ccc(-c2ccccc2)cc1` [Compound 12c, 2-([1,1′-Biphenyl]-4-ylsulfonyl)hydrazine-1-carbothioamide] gave a half-inhibitory concentration (IC50) on jack bean urease [1] (setting [5]) of 186 ± 7 nM.

`NC(=S)NNS(=O)(=O)c1cccc(Cl)c1Cl` [Compound 12d, 2-((2,3-Dichlorophenyl)sulfonyl)hydrazine-1-carbothioamide] yielded a melting point of 229 to 231 °C. Moreover, at jack bean urease [3], the affinity corresponds to a Ki of 53 nM, the “Ki′ (ESI dissociation constant)” value was 125 nM and the “Inhibition Type” value is reported as “mixed type of mode inhibition”. The Vmax on jack bean urease [3] (inhibitor dose 0.026 µM) is 0.00213 ΔA/Min. Further, the Vmax at jack bean urease [3] (inhibitor dose 0.052 µM) is reported as 0.00194 ΔA/Min. Further, the Vmax at jack bean urease [3] (inhibitor dose 0.104 µM) is listed as 0.0016 ΔA/Min. At jack bean urease [3] (inhibitor dose 0.208 µM), the Vmax was 0.001 ΔA/Min. Further, the IC50 at jack bean urease [1] (setting [5]) was 26.6 nM and 26 nM. Besides, in data set [2], the radical scavenging potency entry was “excellent radical scavenging potency”.

For “2-((3,5-Dimethylphenyl)sulfonyl)hydrazine-1-carbothioamide [Compound 6e]”, the IC50 at jack bean urease [1] (setting [4]) is 174 ± 9 nM.

As to “2-((4-Methyl-3-nitrophenyl)sulfonyl)hydrazine-1-carbothioamide [Compound 6f]”, at jack bean urease [1] (setting [4]), the IC50 worked out at 127 ± 7.6 nM.

For the molecule `Cc1ccc(S(=O)(=O)NC23CC4CC(CC(C4)C2)C3)cc1[N+](=O)[O-]` [Compound 9f, N-(Adamantan-1-yl)-4-methyl-3-nitrobenzenesulfonamide], the IC50 on jack bean urease [1] (setting [5]) was found to be 55.8 ± 1 nM.
